From patent US12428459B2, “Protein tag to induce ligand dependent degradation of protein/protein-fusions” (DANA-FARBER CANCER INSTITUTE, INC., priority 2019, dated 2025)
“Also recorded” adds a separate entry of the source.

Key:
[1] = system: DDB1ΔB-DCAF15biotin-DDA1 / RBM39RRM2; assay: TR-FRET titration of BodipyFL-RBM39RRM2 to the DDA1-containing complex with E7820; type: binding, human; conditions: with versus without DDA1
Experimental: (§1) Titrations of BodipyFL-RBM39 were carried out by mixing 400 nM biotinylated Strep II Avi-tagged DCAF15 variants, 100 μM compounds or equivalent volume of DMSO, and 4 nM terbium-coupled streptavidin in the same assay buffer. After dispensing the assay mixture, increasing concentration of BodipyFL-RBM39 was added to the compound-bound DCAF15 in a 1:1 volume ratio and incubated for 15 min at room temperature. The 520/490 nm ratios were plotted to calculate the Kd values estimated using One site-Specific binding equation in GraphPad Prism® 7.

DDB1ΔB-DCAF15biotin-DDA1 = assay: TR-FRET titration of BodipyFL-E7820 probe to the DDA1-containing complex; type: binding, human; conditions: with versus without DDA1
Experimental: Titrations of BodipyFL-E7820 (4) were carried out by mixing 200 nM biotinylated Strep II Avi-tagged DCAF15 variants or equivalent volume of the assay buffer, 2 nM terbium-coupled streptavidin in the same assay buffer. After dispensing the assay mixture, increasing concentration of BodipyFL-E7820 (4) was dispensed in the 384-well plate using D300e normalized to 2% DMSO, and then incubated for 15 min at room temperature. The 520/490 nm ratios from the sample with DCAF15 was subtracted by the ratios from the sample without DCAF15, and the subtracted values were plotted to calculate the Kd values estimated using One site-Specific binding equation in GraphPad Prism® 7. All TR-FRET results are plotted as means±s.d. from three independent replicates (n=3) unless otherwise indicated.

RBM39RRM2-biotin = target: T1, RBM39RRM2-biotin (Homo sapiens, UniProt Q14498); assay: TR-FRET titration of BodipyFL-E7820 probe to RBM39RRM2-biotin; type: binding; conditions: RBM39RRM2-biotin alone
T1 construct: RBM39RRM2 (245-332), and RBM23RRM2 (263-341); made in house; host or cells: Trichoplusia ni High Five insect cells (baculovirus)
T1 sequence (Q14498 245-332): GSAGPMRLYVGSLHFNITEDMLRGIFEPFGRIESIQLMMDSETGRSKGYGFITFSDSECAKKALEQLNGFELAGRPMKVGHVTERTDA

[2] = target: T2, DDB1ΔB-DCAF15 and BodipyFL-RBM39RRM2-G268V (Homo sapiens, UniProt Q14498+Q66K64, G268V); assay: TR-FRET recruitment assay with the RBM39RRM2 G268V mutant: titration of E7820; type: binding; conditions: BodipyFL-RBM39RRM2-G268V 200 nM, E7820 0.002-33 μM
T2 construct: RBM39RRM2 (245-332), and RBM23RRM2 (263-341); made in house; host or cells: Trichoplusia ni High Five insect cells (baculovirus)
Experimental: (§2) Titrations of compounds to induce DCAF15-RBM39 or DCAF15-RBM23 complex were carried out by mixing 200 nM biotinylated Strep II Avi-tagged DCAF15, 200 nM BodipyFL-labeled RBM39 or RBM23 variants, and 2 nM terbium-coupled streptavidin (Invitrogen™) in an assay buffer containing 50 mM Tris pH 8.0, 200 mM NaCl, 0.1% Pluronic F-68 solution (Sigma®), and 0.5% BSA (w/v). Full-length human DCAF15 was used in all TR-FRET assays. After dispensing the assay mixture, increasing concentrations of compounds were dispensed in a 384-well microplate (Corning, 4514) using a D300e Digital Dispenser (HP) normalized to 2% DMSO. Before TR-FRET measurements were conducted, the reactions were incubated for 15 min at room temperature. After excitation of terbium fluorescence at 337 nm, emission at 490 nm (terbium) and 520 nm (BodipyFL) were recorded with a 70 μs delay over 600 μs to reduce background fluorescence, and the reaction was followed over 60 cycles of each data point using a PHERAstar® FS microplate reader (BMG Labtech). The TR-FRET signal of each data point was extracted by calculating the 520/490 nm ratio. The half-maximal effective concentration EC50 values calculated using [Agonist] vs response (three parameters) equation in GraphPad Prism® 7.

[3] = target: T3, DDB1ΔB-DCAF15split and BodipyFL-RBM39RRM2 (Homo sapiens, UniProt Q14498+Q66K64); assay: TR-FRET recruitment assay with DCAF15split: titration of E7820; type: binding; conditions: E7820 0.002-33 μM, proteins at 200 nM
T3 construct: DCAF15 NTD (30-264), DCAF15 CTD (383-600); RBM39RRM2 (245-332), and RBM23RRM2 (263-341); Strep II Avi (N); made in house; host or cells: Trichoplusia ni High Five insect cells (baculovirus)

RBM39 in HEK293T cells = target: T4, RBM39 in HEK293T cells (Homo sapiens, UniProt Q14498+Q66K64); assay: Cellular degradation of endogenous RBM39, western blot; type: cell-based; conditions: 500 nM E7820, HEK293T, 6 h
T4 construct: cellular degradation of endogenous RBM39; endogenous in cells; host or cells: HEK293T
Experimental: FIG. 7A-FIG. 7G are a series of cartoon representations, graphs, and structures depicting the biochemical characterization of DCAF15 binding to aryl-sulfonamides and RBM39RRM2. FIG. 7A is a schematic representation of TR-FRET-based DCAF15-RBM39 dimerization assay. FIG. 7B is a graph of TR-FRET for the titration of BodipyFL-RBM39RRM2 (0.02-20 μM) to DDB1ΔB-DCAF15biotin at 200 nM in the absence (DMSO) or presence of aryl-sulfonamides at 50 μM. Data is plotted as means±s.d. from three independent replicates (n=3). […] FIG. 7D is a schematic representation of TR-FRET-based DCAF15 binding assay. Compound 4 is titrated to the DDB1ΔB-DCAF15biotin, and the probe is displaced by competitor compounds. FIG. 7E is the chemical structure of BodipyFL-E7820 (4). […] Data is plotted as means±s.d. from three independent replicates (n=3). FIG. 7G is an immunoblot showing cellular degradation of endogenous RBM39. […] Shown is the uncropped blot with molecular size markers. The positions of RBM39 and GAPDH are indicated, and the asterisk marks a non-specific band. Quantitation of RBM39 and GAPDH bands was performed with the LI-COR imaging system, and % RBM39 is calculated as [RBM39 intensity/GAPDH intensity].

Kelly cells = assay: TMT quantification mass spectrometry proteomics (degradome of E7820); type: cell-based; conditions: E7820 10 μM, 5 h
Experimental: Treated Kelly cells were washed in PBS (Corning VWR, Radnor PA, USA) and collected at 3000 g centrifugation. Sample preparation and LC-MS analysis for whole proteome identification of novel E7820-dependent substrates was performed as described previously (Donovan et al., Elife 7:38430 (2018)).

DDB1ΔB-DCAF15biotin = target: T5, DDB1ΔB-DCAF15biotin (Homo sapiens, UniProt Q66K64); assay: TR-FRET competition assay: displacement of BodipyFL-E7820 by aryl-sulfonamides; type: binding; conditions: for DCAF15 binding relative to E7820: competitive binding assay
T5 construct: Full-length human DCAF15 was used in all TR-FRET assays; made in house; host or cells: Trichoplusia ni High Five insect cells (baculovirus)
Description: The 520/490 nm ratios from the sample with DCAF15 was subtracted by the ratios from the sample without DCAF15, and the subtracted values were plotted to calculate the Kd values estimated using One site-Specific binding equation in GraphPad Prism® 7. All TR-FRET results are plotted as means±s.d. from three independent replicates (n=3) unless otherwise indicated.

[4] = target: T6, DDB1ΔB-DCAF15biotin and BodipyFL-RBM39RRM2 (Homo sapiens, UniProt Q14498+Q66K64); assay: TR-FRET RBM39RRM2 recruitment assay: titration of compound; type: binding; conditions: BodipyFL-RBM39RRM2-WT 200 nM, DCAF15 200 nM; read-out: EC50 of DCAF15-RBM39RRM2 complex formation
T6 construct: Full-length human DCAF15 was used in all TR-FRET assays; RBM39RRM2 (245-332), and RBM23RRM2 (263-341); made in house; host or cells: Trichoplusia ni High Five insect cells (baculovirus)
Experimental: as §2

[5] = system: degron tag-eGFP fusion protein in HEK293T cells; assay: Compound-dependent degradation of degron-eGFP fusion, eGFP/mCherry ratio; type: cell-based; conditions: 20-hour treatment
Description: To test compound-dependent degradation of the designed degron tags, a fusion protein of the tags and enhanced green fluorescence protein (eGFP) was stably expressed in HEK293T cells using a lentiviral vector. As an internal control, the cells also expressed an untagged mCherry protein downstream of the same promoter as degron-eGFP separated by an internal ribosomal entry site. […] A lower value of eGFP/mCherry at the same compound concentration indicates a higher rate of degradation. Designed degrons have higher degradation at low doses of aryl-sulfonamides and also lower IC50 values.

[6] = target: T7, DDB1ΔB-DCAF15biotin / RBM39RRM2 (Homo sapiens, UniProt Q14498+Q66K64); assay: TR-FRET DCAF15-RBM39 dimerization assay: titration of BodipyFL-RBM39RRM2 to DDB1ΔB-DCAF15biotin with aryl-sulfonamide; type: binding; conditions: compound at 50 μM; DDB1ΔB-DCAF15biotin without DDA1; read-out: KD^app of RBM39RRM2 for DDB1ΔB-DCAF15 in the presence of compound
T7 construct: Full-length human DCAF15 was used in all TR-FRET assays; RBM39RRM2 (245-332), and RBM23RRM2 (263-341); made in house; host or cells: Trichoplusia ni High Five insect cells (baculovirus)
Experimental: Time-Resolved Fluorescence Resonance Energy Transfer (TR-FRET)
as §1

Binding to RBM39RRM2 (RBM39RRM2-biotin)	RBM39RRM2 recruitment to DCAF15 with Gly268Val mutation [2]	DCAF15-RBM39 dimerization, DCAF15split versus full length DCAF15 [3]	Degradation of RBM39 in cells (RBM39 in HEK293T cells)	Kd [6]	Structure (SMILES)	Strengthening of apparent affinity to RBM39RRM2 by DDA1 [1]	Effect of DDA1 on the affinity of E7820 to DCAF15 (DDB1ΔB-DCAF15biotin-DDA1)	Proteins degraded out of ~11,000 proteins detected (Kelly cells)	Ki (DDB1ΔB-DCAF15biotin; DDB1ΔB-DCAF15biotin 200 nM, BodipyFL-E7820 5 μM, aryl-sulfonamides 0.002-100 μM, read-out: Ki for DCAF15)	DCAF15 binding relative to E7820 (DDB1ΔB-DCAF15biotin)	EC50 [4]	Degradation of designed degron tag-eGFP (eGFP/mCherry ratio) [5]
not with RBM39	completely abrogated	equivalent binding	potently degraded		Cc1ccc(NS(=O)(=O)c2cccc(C#N)c2)c2[nH]cc(C#N)c12 [E7820]	~3 fold	not altered	only RBM23 to be degraded in addition to RBM39				
					NS(=O)(=O)c1ccc(S(=O)(=O)Nc2cccc3c(Cl)c[nH]c23)cc1 [indisulam]				> 50 µM	significant loss of DCAF15 binding; also recorded: significant loss in affinity for DCAF15	3.2 µM	dose-dependent degradation
				3.5 µM	O=C(NS(=O)(=O)c1ccc(Br)s1)c1ccc(Cl)cc1Cl [tasisulam]					significant loss in affinity for DCAF15	> 10 µM	dose-dependent degradation
